Experiment: Stability tests of Idarubicin HCl, 1% w/v aqueous solution, pH varied with NH4OH or HCl or dissolved as is (aglycone, bis-anhydro)
Assay type: physicochemical
Settings: for % aglycone / % bis-anhydro: 1% w/v aqueous solution
Experimental: Starting product was idarubicin hydrochloride, 1% w/v aqueous solution, the analysis of which is shown in the data reported at t=0. 3% mol of NH4OH with respect to idarubicin hydrochloride was added to the solution at t=0 and the solution was incubated at 20° C. for the indicated time. The results in table 1 show the expected rise over time of the bis-anhydro degradation product at high pH (6.69), with very little increase of aglycone.
Starting product was idarubicin hydrochloride, 1% w/v aqueous solution, the analysis of which is shown in the data reported at t=0. 1% mol of NH4OH with respect to idarubicin hydrochloride was added to the solution at t=0 and the solution was incubated at 20° C. for the indicated time.
Starting product was idarubicin hydrochloride, 1% w/v aqueous solution, the analysis of which is shown in the data reported at t=0. 3% mol of NH4OH with respect to idarubicin hydrochloride was added to the solution at t=0 and the solution was incubated at 4° C. for the indicated time.
Starting product was idarubicin hydrochloride, 1% w/v aqueous solution, the analysis of which is shown in the data reported at t=0.1% mol of NH4OH with respect to idarubicin hydrochloride was added to the solution at t=0 and the solution was incubated at 4° C. for the indicated time.
Starting product was idarubicin hydrochloride, 1% w/v aqueous solution, the analysis of which is shown in the data reported at t=0. The solution was incubated for the indicated time at 20° C. without additional chemicals. The results in table 5 show the expected rise in bis-anhydro content.
Starting product was idarubicin hydrochloride, 1% w/v aqueous solution, the analysis of which is shown in the data reported at t=0. The solution was incubated for the indicated time at 4° C. without the addition of additional chemicals.The results in table 6 show a rise in bis-anhydro content, even at 4° C.
Starting product was idarubicin hydrochloride, 1% w/v aqueous solution. At t=0, the pH of the solution was lowered by the addition of 1% mol of HCl with respect to idarubicin hydrochloride. The solution was incubated for the indicated time at 20° C.
Starting product was idarubicin hydrochloride, 1% w/v aqueous solution. At t=0, the pH of the solution was lowered by the addition of 1% mol of HCl with respect to idarubicin hydrochloride. The solution was incubated for the indicated time at 4° C.
Starting product was idarubicin hydrochloride, 1% w/v aqueous solution. At t=0, the pH of the solution was lowered to 3.6 by the addition of 1.3% mol of HCl with respect to idarubicin hydrochloride. The solution was then incubated for the indicated time at 20° C.
Starting product was idarubicin hydrochloride, 1% w/v aqueous solution. At t=0, the pH of the solution was lowered to 3.55 by the addition of 1.5% mol of HCl with respect to idarubicin hydrochloride. The solution was then incubated for the indicated time at 20° C.
Starting product was idarubicin hydrochloride, 1% w/v aqueous solution. At t=0, the pH of the solution was lowered to 3.50 by the addition of 1.7% mol of HCl with respect to idarubicin hydrochloride.
Starting product was idarubicin hydrochloride, 1% w/v aqueous solution. At t=0, the pH of the solution was lowered to 3.03 by the addition of 6.5% mol of HCl with respect to idarubicin hydrochloride.
Starting product was idarubicin hydrochloride, 1% w/v aqueous solution. At t=0, the pH of the solution was lowered to 2.18 by the addition of 48% mol of HCl with respect to idarubicin hydrochloride.

[1] = HCl 1% mol, pH 3.91, 4° C., 169 hr
[2] = HCl 1% mol, pH 3.91, 4° C., 407 hr
[3] = HCl 1% mol, pH 3.91, 20° C., 28 hr
[4] = HCl 1% mol, pH 3.91, 20° C., 168 hr
[5] = HCl 1% mol, pH 3.91, 20° C., 406 hr
[6] = HCl to pH = 2.18 (extra HCl = 48% mol), 4° C., 30 hr
[7] = HCl to pH = 2.18 (extra HCl = 48% mol), 4° C., 119 hr
[8] = HCl to pH = 2.18 (extra HCl = 48% mol), 20° C., 27 hr
[9] = HCl to pH = 2.18 (extra HCl = 48% mol), 20° C., 118 hr
[10] = HCl to pH = 3.03 (extra HCl = 6.5% mol), 20° C., 366 hr
[11] = HCl to pH = 3.50 (extra HCl = 1.7% mol), 20° C., 366 hr
[12] = HCl to pH = 3.55 (extra HCl = 1.5% mol), 20° C., 366 hr
[13] = HCl to pH = 3.60 (extra HCl = 1.3% mol), 20° C., 366 hr
[14] = NH3 1% mol, pH 6.56, 4° C., 34 hr
[15] = NH3 1% mol, pH 6.56, 4° C., 56 hr
[16] = NH3 1% mol, pH 6.56, 4° C., 149 hr
[17] = NH3 1% mol, pH 6.56, 20° C., 29 hr
[18] = NH3 1% mol, pH 6.56, 20° C., 54 hr
[19] = NH3 1% mol, pH 6.56, 20° C., 146 hr
[20] = NH3 3% mol, pH 6.69, 4° C., 28 hr
[21] = NH3 3% mol, pH 6.69, 4° C., 129 hr
[22] = NH3 3% mol, pH 6.69, 20° C., 25 hr
[23] = NH3 3% mol, pH 6.69, 20° C., 122 hr
[24] = dissolved as is, pH 5.66, 4° C., 31 hr
[25] = dissolved as is, pH 5.66, 4° C., 154 hr
[26] = dissolved as is, pH 5.66, 20° C., 26 hr
[27] = dissolved as is, pH 5.66, 20° C., 57 hr
[28] = dissolved as is, pH 5.66, 20° C., 148 hr

## CC(=O)[C@]1(O)Cc2c(O)c3c(c(O)c2[C@@H](O[C@H]2C[C@@H](N)[C@H](O)C(C)O2)C1)C(=O)c1ccccc1C3=O.Cl (stereo partly shown) [Idarubicin HCl, Idarubicin hydrochloride]
HCl 1% mol, pH 3.91, 4° C., 33 hr
  % aglycone: 0.57%
[1]
  % aglycone: 0.58%
  % bis-anhydro: 0.06%
[2]
  % aglycone: 0.58%
  % bis-anhydro: 0.05%
HCl 1% mol, pH 3.91, 4° C., t = 0
  % aglycone: 0.59%
[3]
  % aglycone: 0.57%
  % bis-anhydro: 0.04%
[4]
  % aglycone: 0.58%
  % bis-anhydro: 0.09%
[5]
  % aglycone: 0.59%
  % bis-anhydro: 0.25%
HCl 1% mol, pH 3.91, 20° C., t = 0
  % aglycone: 0.59%
[6]
  % aglycone: 0.61%
  % bis-anhydro: 0.06%
[7]
  % aglycone: 0.63%
  % bis-anhydro: 0.06%
HCl to pH = 2.18 (extra HCl = 48% mol), 4° C., t = 0
  % aglycone: 0.59%
[8]
  % aglycone: 0.72%
  % bis-anhydro: 0.06%
[9]
  % aglycone: 1.03%
  % bis-anhydro: 0.06%
HCl to pH = 2.18 (extra HCl = 48% mol), 20° C., t = 0
  % aglycone: 0.59%
HCl to pH = 3.03 (extra HCl = 6.5% mol), 4° C., 29 hr
  % aglycone: 0.61%
HCl to pH = 3.03 (extra HCl = 6.5% mol), 4° C., 80 hr
  % aglycone: 0.61%
HCl to pH = 3.03 (extra HCl = 6.5% mol), 4° C., 364 hr
  % aglycone: 0.61%
HCl to pH = 3.03 (extra HCl = 6.5% mol), 4° C., t = 0
  % aglycone: 0.59%
HCl to pH = 3.03 (extra HCl = 6.5% mol), 20° C., 22 hr
  % aglycone: 0.62%
HCl to pH = 3.03 (extra HCl = 6.5% mol), 20° C., 76 hr
  % aglycone: 0.63%
HCl to pH = 3.03 (extra HCl = 6.5% mol), 20° C., 124 hr
  % aglycone: 0.65%
[10]
  % aglycone: 0.77%
  % bis-anhydro: 0.04%
HCl to pH = 3.03 (extra HCl = 6.5% mol), 20° C., t = 0
  % aglycone: 0.59%
HCl to pH = 3.50 (extra HCl = 1.7% mol), 20° C., 22 hr
  % aglycone: 0.59%
HCl to pH = 3.50 (extra HCl = 1.7% mol), 20° C., 76 hr
  % aglycone: 0.59%
HCl to pH = 3.50 (extra HCl = 1.7% mol), 20° C., 124 hr
  % aglycone: 0.60%
[11]
  % aglycone: 0.61%
  % bis-anhydro: 0.01%
HCl to pH = 3.50 (extra HCl = 1.7% mol), 20° C., t = 0
  % aglycone: 0.59%
HCl to pH = 3.55 (extra HCl = 1.5% mol), 20° C., 22 hr
  % aglycone: 0.59%
HCl to pH = 3.55 (extra HCl = 1.5% mol), 20° C., 76 hr
  % aglycone: 0.59%
HCl to pH = 3.55 (extra HCl = 1.5% mol), 20° C., 124 hr
  % aglycone: 0.60%
[12]
  % aglycone: 0.61%
  % bis-anhydro: 0.01%
HCl to pH = 3.55 (extra HCl = 1.5% mol), 20° C., t = 0
  % aglycone: 0.59%
HCl to pH = 3.60 (extra HCl = 1.3% mol), 20° C., 22 hr
  % aglycone: 0.59%
HCl to pH = 3.60 (extra HCl = 1.3% mol), 20° C., 76 hr
  % aglycone: 0.59%
HCl to pH = 3.60 (extra HCl = 1.3% mol), 20° C., 124 hr
  % aglycone: 0.60%
[13]
  % aglycone: 0.61%
  % bis-anhydro: 0.01%
HCl to pH = 3.60 (extra HCl = 1.3% mol), 20° C., t = 0
  % aglycone: 0.59%
[14]
  % aglycone: 0.58%
  % bis-anhydro: 0.50%
[15]
  % aglycone: 0.58%
  % bis-anhydro: 0.74%
[16]
  % aglycone: 0.58%
  % bis-anhydro: 1.33%
NH3 1% mol, pH 6.56, 4° C., t = 0
  % aglycone: 0.59%
[17]
  % aglycone: 0.58%
  % bis-anhydro: 2.37%
[18]
  % aglycone: 0.58%
  % bis-anhydro: 3.56%
[19]
  % aglycone: 0.59%
  % bis-anhydro: 8.03%
NH3 1% mol, pH 6.56, 20° C., t = 0
  % aglycone: 0.59%
[20]
  % aglycone: 0.59%
  % bis-anhydro: 0.63%
[21]
  % aglycone: 0.59%
  % bis-anhydro: 1.87%
NH3 3% mol, pH 6.69, 4° C., t = 0
  % aglycone: 0.59%
[22]
  % aglycone: 0.60%
  % bis-anhydro: 3.00%
[23]
  % aglycone: 0.61%
  % bis-anhydro: 13.46%
NH3 3% mol, pH 6.69, 20° C., t = 0
  % aglycone: 0.59%
[24]
  % aglycone: 0.57%
  % bis-anhydro: 0.11%
[25]
  % aglycone: 0.57%
  % bis-anhydro: 0.30%
Dissolved as is, pH 5.66, 4° C., t = 0
  % aglycone: 0.59%
[26]
  % aglycone: 0.57%
  % bis-anhydro: 0.41%
[27]
  % aglycone: 0.58%
  % bis-anhydro: 0.84%
[28]
  % aglycone: 0.58%
  % bis-anhydro: 1.20%
Dissolved as is, pH 5.66, 20° C., t = 0
  % aglycone: 0.59%
Lowest amount of aglycon and bis-anhydro impurities, constant over time even at 20° C.
  pH at which found to be most stable: 3.5
